Test results taken from ChEMBL document CHEMBL1130695, “Biologically selective potassium channel openers having 1,1-diethylpropyl group” (1998).
One block for each molecule: values may come before it.

Assays:
Cavia porcellus [1] = species: Cavia porcellus; assay: Compound was tested for relaxant activity in trachea for asthma in male guinea pigs; type: functional
Cavia porcellus [2] = species: Cavia porcellus; assay: Compound was tested for relaxant activity in urinary bladder for urinary incontinence in male guinea pigs; type: functional
Cavia porcellus [3] = species: Cavia porcellus; assay: Compound was tested for relaxant activity in taenia caecum; type: functional; conditions: read-out: ED50 (the source's name)
Canis familiaris = assay: Compound was tested for the antihypertensive activity in dogs by intravenous injection at a dose of 30 ug/kg; type: functional, Canis lupus familiaris
Cavia porcellus [4] = species: Cavia porcellus; assay: Compound was tested for relaxant activity in urinary bladder for urinary incontinence in male guinea pigs at 1 uM concentration; type: functional; design: scale not given: the % may be the effect or the level left

Structure (SMILES): CCC(C)(CC)/N=C(\NC#N)Nc1cc(Cl)cc(Cl)c1
ED50 (Cavia porcellus [1]): 440 nM
ED50 (Cavia porcellus [2]): 13 nM

Structure (SMILES): CCC(C)(C)/N=C(\NC#N)Nc1cc(F)cc(Br)c1
ED50 (Cavia porcellus [1]): 180 nM
ED50 (Cavia porcellus [2]): 16 nM

Structure (SMILES): CCC(C)(C)/N=C(\NC#N)Nc1cc(F)cc(Cl)c1
ED50 (Cavia porcellus [1]): 260 nM
ED50 (Cavia porcellus [2]): 32 nM

Structure (SMILES): CCC(CC)(CC)/N=C(\NC#N)Nc1cc(Cl)cc(Cl)c1
Activity (Cavia porcellus [4]): <5%
AHA (Canis familiaris): -15.9 delta mmHg
ED50 (Cavia porcellus [1]): 30000 nM
ED50 (Cavia porcellus [2]): >1000 nM

Structure (SMILES): CC(N/C(=N\C#N)Nc1ccncc1)C(C)(C)C (stereo unspecified) [PINACIDIL ANHYDROUS]
ED50 (Cavia porcellus [1]): 2300 nM
ED50 (Cavia porcellus [2]): 310 nM

More lines, main results first:

EC50 (Cavia porcellus [3]): 100 nM
Structure (SMILES): CCC(C)(CC)/N=C(\NC#N)Nc1cc(Cl)cc(C#N)c1
AHA (Canis familiaris): -25.2 delta mmHg
ED50 (Cavia porcellus [1]): 190 nM
ED50 (Cavia porcellus [2]): 16 nM

EC50 (Cavia porcellus [3]): 94 nM
Structure (SMILES): CCC(CC)(CC)/N=C(\NC#N)Nc1cc(Cl)cc(C#N)c1
Activity (Cavia porcellus [4]): 22%
AHA (Canis familiaris): -18.9 delta mmHg
ED50 (Cavia porcellus [1]): 5600 nM
ED50 (Cavia porcellus [2]): >1000 nM

EC50 (Cavia porcellus [3]): 32 nM
Structure (SMILES): CCC(C)(C)/N=C(\NC#N)Nc1cc(Br)cc(C#N)c1
ED50 (Cavia porcellus [1]): 80 nM
ED50 (Cavia porcellus [2]): 11 nM

EC50 (Cavia porcellus [3]): 170 nM
Structure (SMILES): CC(C)C(C)(C)/N=C(\NC#N)Nc1cc(Cl)cc(C#N)c1
AHA (Canis familiaris): -20.3 delta mmHg
ED50 (Cavia porcellus [1]): 690 nM
ED50 (Cavia porcellus [2]): 190 nM

EC50 (Cavia porcellus [3]): 75 nM
Structure (SMILES): CCC(C)(C)/N=C(\NC#N)Nc1cc(Cl)cc(C#N)c1
AHA (Canis familiaris): -29.8 delta mmHg
ED50 (Cavia porcellus [1]): 280 nM
ED50 (Cavia porcellus [2]): 20 nM

EC50 (Cavia porcellus [3]): 470 nM
Structure (SMILES): CC1(C)Oc2ccc(C#N)cc2[C@@H](N2CCCC2=O)[C@@H]1O [CROMAKALIM]
AHA (Canis familiaris): -37.8 delta mmHg
ED50 (Cavia porcellus [1]): 1200 nM
ED50 (Cavia porcellus [2]): 42 nM
